“And” between values parts separate entries of the source, which are not always exact repeats. Equal entries are not always repeated.
Legend:
C. albicans ISS 1 = assay: Experimental subcutaneous infection with Candida albicans in mice; assay type: in vivo, Candida albicans in mice (male CD1 outbred); conditions: individual samples 1-4; 50 mcg s.c. at 0, 48 and 96 hours (150 total mcg per animal)
Procedure: Male CD1 outbred mice (IFFA Credo) aged 8 weeks were used (4 animals per group).
A pathogenic strain of Candida was used, namely C. albicans ISS 1.
The infected animals were treated with ST 722 dissolved in saline, and Miconazole diluted in saline from a stock solution containing 1% Dimethyl Formamide.
From an overnight broth culture of C. albicans in Sabouraud broth, a fungal suspension was prepared in sterile saline containing 5.0×10^5 cells/mi. An inoculum of 0.5 ml of this suspension was injected subcutaneously into the abdominal wall of each animal.
The compounds were then administered by subcutaneous injection in the same area of the fungal challenge at the dose of 50 mcg (in 0.2 ml of saline) immediately after the inoculum and following 48 and 96 hours (150 total mcg per animal).
Then, 48 hours following the last treatment (6 days after the challenge with Candida), the animals were sacrificed, and the abdominal wall as well as the peritoneum were dissected out.
The excised tissues were then homogenized in 5 ml of sterile saline with a Potter-Elvehjem tissue grinder. The resulting suspensions, appropriately diluted, where plated onto Petri dishes containing a selective agar medium (BIGGY agar), which allows to easily detect the yeast Colony Forming Units (CFU/ml).
The number of colonies scored in a series of dilutions for each single sample consents to calculate the number of yeast cells present in the infected tissue sample as follows: [formula] Where Zi is the number of dilutions performed, Ni is the number of plates prepared for each dilution, and Ci is the total number of yeast cells scored in each dilution.

[1] = system: Candida pseudotropicalis (EC 1); assay: MIC for yeast and yeast-like strains; assay type: cell-based; conditions: Kluyveromyces marxianus; 48 hours, 35° C.; read-out: Minimal Inhibitory Concentration (MIC)
Procedure: (§1) The following strains were used (the number of strains is in brackets): Candida (13); Criptococcus (2); Saccharormyces (1); Torulopsis (1).
(§2) Yeast Nitrogen Base supplemented with 0.15% asparagine and 1.0% glucose (as carbon source) was the medium utilized in the assays.
(§3) This medium was buffered with 0.165 M 2-(N-morpholino) propane sulfonic acid (MOPS), a non-chelating buffer.
(§4) Antimicrob. Agents Cheroother. Aug. 34.8:1542-1545).
(§5) The inoculum was prepared from an overnight broth culture (a 48-hour culture only for Cryptococcus) in Sabouraud broth and appropriately diluted to yield a final suspension containing approximately 5.0×10^6 Colony Forming Units per ml (CFU/ml), when compared to the Mc Farland's standard control (BRAY W. E., Clinical Laboratory Methods, 5th Ed. C. V. MOSBY, St. Louis, Mo, 1957).
(§6) After further diluting (1:50), a […] volume of such fungal suspensions and an equal volume of the substance solutions were distributed into each well of a microtiter plate (96 wells, round bottom). Such a procedure eventually allowed for an "in vitro" antimycotic activity assay utilizing final fungal inocula of approximately 5.0×10^4 CFU/ml.

Candida albicans (ISS 1) = assay: MIC for yeast and yeast-like strains; assay type: cell-based; conditions: 48 hours, 35° C., read-out: Minimal Inhibitory Concentration (MIC)
Procedure: as §1, §2, §3, §4, §5, §6

[2] = system: Candida albicans (ATCC 2091); assay: MIC for yeast and yeast-like strains; assay type: cell-based; conditions: ATCC2091, 48 hours, 35° C., read-out: Minimal Inhibitory Concentration (MIC)
Procedure: as §1, §2, §3, §4, §5, §6

[3] = system: Candida guilliermondii (ISS 1); assay: MIC for yeast and yeast-like strains; assay type: cell-based; conditions: Meyerozyma guilliermondii; 48 hours, 35° C.; read-out: Minimal Inhibitory Concentration (MIC)
Procedure: as §1, §2, §3, §4, §5, §6

[4] = system: Candida tropicalis (ISS 1); assay: MIC for yeast and yeast-like strains; assay type: cell-based; conditions: 48 hours, 35° C., read-out: Minimal Inhibitory Concentration (MIC)
Procedure: as §1, §2, §3, §4, §5, §6

[5] = system: Candida parapsilosis (ISS 1); assay: MIC for yeast and yeast-like strains; assay type: cell-based; conditions: Lodderomyces parapsilosis; 48 hours, 35° C.; read-out: Minimal Inhibitory Concentration (MIC)
Procedure: as §1, §2, §3, §4, §5, §6

Candida glabrata (ISS 1) = assay: MIC for yeast and yeast-like strains; assay type: cell-based; conditions: Nakaseomyces glabratus; 48 hours, 35° C.; read-out: Minimal Inhibitory Concentration (MIC)
Procedure: as §1, §2, §3, §4, §5, §6

[6] = system: Cryptococcus neoformans (ISS 1); assay: MIC for yeast and yeast-like strains; assay type: cell-based; conditions: 48 hours, 35° C., read-out: Minimal Inhibitory Concentration (MIC)
Procedure: as §1, §2, §3, §4, §5, §6

yeast-like fungi = assay: MIC / MFC for yeast-like fungi, all strains; assay type: cell-based, Candida, Cryptococcus, Saccharomyces, Torulopsis; conditions: versus susceptible strains; read-out: Mean MIC values
Procedure: as §1, §2
(§7) This medium was buffered with 0.165 M 2-(N-morpholino) propane sulfonic acid (MOPS), a non-chelating buffer. […]
as §5, §6
(§8) The minimal fungicidal concentration was evaluated by spot-transferring onto Petri dishes, containing Sabouraud agar, 0.01-ml volumes of all the samples showing no visible fungal growth.

[7] = system: Microsporum canis (IHEM 3522); assay: MIC for dermatophytic fungi; assay type: cell-based; conditions: 35° C., 96 hours, read-out: Minimal Inhibitory Concentration (MIC)
Procedure: (§9) The following strains were used: Trichophyton menthagrophytes ATCC 9533, Trichophyton rubrum IHEM 4274, Microsporum canis IHEM 3522, Epydermophyton floccosum IHEM 3495. The tested substances were: ST 722, ST 1033, ST 1037, ST 1050, ST 1051, ST 1052,. ST 1053.
(§10) The assay was performed following the same procedure described for the yeasts, by using 7-day fungi cultures grown at 30° C. in Potato Dextrose agar, and harvested with Sabouraud broth and Tween 80 (0.5%).
(§11) After washing with Yeast Nitrogen Base, supplemented with asparagine and glucose (as carbon source), the fungal suspension was fragmented using a tissue grinder until the largest clumps or aggregates were undetectable within the grinder. This fungal suspension was then appropriately diluted in YNB to yield a concentration of 2.0×10^5 infective particles/ml (small mycelium fragments, micro-and macroaleuriospores).
(§12) Volumes of 100 μl both of the fungal suspensions and substance solutions, two-fold serially diluted in assay medium, were distributed into each well of a microtiter plate (96 wells, round bottom), which was incubated at 35° C. for 96 hours.

[8] = system: Epidermophyton floccosum (IHEM 3495); assay: MIC for dermatophytic fungi; assay type: cell-based; conditions: 35° C., 96 hours, read-out: Minimal Inhibitory Concentration (MIC)
Procedure: as §9, §10, §11, §12

[9] = system: Trichophyton rubrum (IHEM 4274); assay: MIC for dermatophytic fungi; assay type: cell-based; conditions: 35° C., 96 hours, read-out: Minimal Inhibitory Concentration (MIC)
Procedure: as §9, §10, §11, §12

[10] = system: Trichophyton menthagrophites (ATCC 9533); assay: MIC for dermatophytic fungi; assay type: cell-based; conditions: ATCC9533, 35° C., 96 hours, read-out: Minimal Inhibitory Concentration (MIC)
Procedure: as §9, §10, §11, §12

Candida albicans (562) = assay: MIC for yeast and yeast-like strains; assay type: cell-based; conditions: 48 hours, 35° C., read-out: Minimal Inhibitory Concentration (MIC)
Procedure: as §1, §2, §7, §5, §6

Candida albicans (A 54) = assay: MIC for yeast and yeast-like strains; assay type: cell-based; conditions: 48 hours, 35° C., read-out: Minimal Inhibitory Concentration (MIC)
Procedure: as §1, §2, §7, §5, §6

[11] = system: Saccharomyces cerevisiae (ATCC 7752); assay: MIC for yeast and yeast-like strains; assay type: cell-based; conditions: ATCC7752, 48 hours, 35° C., read-out: Minimal Inhibitory Concentration (MIC)
Procedure: as §1, §2, §7, §5, §6

[12] = system: Cryptococcus neoformans (4711); assay: MIC for yeast and yeast-like strains; assay type: cell-based; conditions: 48 hours, 35° C., read-out: Minimal Inhibitory Concentration (MIC)
Procedure: as §1, §2, §7, §5, §6

[13] = system: Torulopsis candida (D.S.); assay: MIC for yeast and yeast-like strains; assay type: cell-based; conditions: Suzukiozyma candida; 48 hours, 35° C.; read-out: Minimal Inhibitory Concentration (MIC)
Procedure: as §1, §2, §7, §5, §6

[14] = system: Candida tropicalis (5705); assay: MIC for yeast and yeast-like strains; assay type: cell-based; conditions: 48 hours, 35° C., read-out: Minimal Inhibitory Concentration (MIC)
Procedure: as §1, §2, §7, §5, §6

Candida krusei (ISS 1) = assay: MIC for yeast and yeast-like strains; assay type: cell-based; conditions: Pichia kudriavzevii; 48 hours, 35° C.; read-out: Minimal Inhibitory Concentration (MIC)
Procedure: as §1, §2, §7, §5, §6

Candida albicans (PG) = assay: MIC and MFC for yeast and yeast-like strains; assay type: cell-based; conditions: 48 hours, 35° C., read-out: Minimal Inhibitory Concentration (MIC)
Procedure: as §1, §2, §3, §4, §5, §6, §8

Fusarium sp. (ISS 1) = assay: MIC for filamentous fungi; assay type: cell-based; conditions: read-out: Minimal Inhibitory Concentration (MIC)
Text: (§13) The following strains were used (the number of strains is in brackets): Aspergillus (5); Fusarium (1); Mucor (1); Penicillium (1).
(§14) The tested substances were: ST 712, ST 722, ST 982, ST 983, ST 1000, ST 1001, ST 1032, ST 1033, ST 1034, ST 1036, ST 1037, ST 1038, ST 1050, ST 1051, ST 1052, ST 1053. The assay medium was the same as the one used in the previous study. The conidia from 72-hour cultures in Sabouraud agar, collected by washing with Sabouraud medium and Tween 80 (one drop of Tween per 10 ml of medium), were utilized as inoculum (5.0×10^4 CFU/ml).
(§15) The assay was performed using the same procedure as described for yeast-like fungi.
(§16) Also the evaluation of MIC and MFC was as reported previously.

[15] = system: Aspergillus fumigatus (2/A); assay: MIC for filamentous fungi; assay type: cell-based; conditions: read-out: Minimal Inhibitory Concentration (MIC)
Text: as §13, §14, §15, §16

[16] = system: Aspergillus fumigatus (ATCC 28212); assay: MIC for filamentous fungi; assay type: cell-based; conditions: ATCC28212, read-out: Minimal Inhibitory Concentration (MIC)
Text: as §13, §14, §15, §16

Penicillium sp. (1302) = assay: MIC for filamentous fungi; assay type: cell-based; conditions: read-out: Minimal Inhibitory Concentration (MIC)
Text: as §13, §14, §15, §16

[17] = system: Aspergillus niger (ATCC 16404); assay: MIC for filamentous fungi; assay type: cell-based; conditions: ATCC16404, read-out: Minimal Inhibitory Concentration (MIC)
Text: as §13, §14, §15, §16

Mucor mucedo (ATCC 7941) = assay: MIC for filamentous fungi; assay type: cell-based; conditions: ATCC7941, read-out: Minimal Inhibitory Concentration (MIC)
Text: as §13, §14, §15, §16

[18] = system: Aspergillus fumigatus (1/A); assay: MIC for filamentous fungi; assay type: cell-based; conditions: read-out: Minimal Inhibitory Concentration (MIC)
Text: as §13, §14, §15, §16

[19] = system: Aspergillus fumigatus (C/1); assay: MIC for filamentous fungi; assay type: cell-based; conditions: read-out: Minimal Inhibitory Concentration (MIC)
Text: as §13, §14, §15, §16

dermatophytic fungi = assay: MIC / MFC for dermatophytic fungi, all strains; assay type: cell-based, Trichophyton, Microsporum, Epidermophyton; conditions: versus susceptible strains
Procedure: as §9, §10, §11, §12

filamentous fungi = assay: MIC / MFC for filamentous fungi, all strains; assay type: cell-based, Aspergillus, Fusarium, Mucor, Penicillium; conditions: versus susceptible strains; read-out: Mean MIC values
Text: as §13, §14, §15, §16

Clc1ccc(COC(Cn2ccnc2)c2ccc(Cl)cc2Cl)c(Cl)c1 (centres unmarked) [Miconazole, reference compound]
CFU/mouse (C. albicans ISS 1): sterile and 3.60 × 10^1 CFU/mouse and 8.10 × 10^1 CFU/mouse

CCCCCCCCCCCCCOC(=O)C[C@H](C[N+](C)(C)C)OC(=O)CC(C)C [ST 1033]
MIC [1]: 3.12 µg/mL
MIC (Candida albicans (ISS 1)): 1.56 µg/mL
MIC [2]: 3.12 µg/mL
MIC [3]: 6.25 µg/mL
MIC [4]: 3.12 µg/mL
MIC [5]: 3.12 µg/mL
MIC (Candida glabrata (ISS 1)): 3.12 µg/mL
MIC [6]: 1.56 µg/mL
MIC (yeast-like fungi): 2.7 µg/mL
MIC [7]: 6.25 µg/mL
MIC [8]: 25 µg/mL
MIC [9]: 6.25 µg/mL
MIC [10]: 12.5 µg/mL
MIC (Candida albicans (562)): 1.56 µg/mL
MIC (Candida albicans (A 54)): 1.56 µg/mL
MIC [11]: 3.12 µg/mL
MIC [12]: 0.78 µg/mL
MIC [13]: 3.12 µg/mL
MIC [14]: 3.12 µg/mL
MIC (Candida krusei (ISS 1)): 3.12 µg/mL
MIC (Candida albicans (PG)): 3.12 µg/mL
MIC (Fusarium sp. (ISS 1)): 3.12 µg/mL
MIC [15]: 3.12 µg/mL
MIC [16]: 3.12 µg/mL
MIC (Penicillium sp. (1302)): 3.12 µg/mL
MIC [17]: 6.25 µg/mL
MIC (Mucor mucedo (ATCC 7941)): 6.25 µg/mL
MIC [18]: 3.12 µg/mL
MIC [19]: 3.12 µg/mL
MIC (dermatophytic fungi): 12.5 µg/mL
MIC (filamentous fungi): 3.9 µg/mL

Source: patent US5525627A, “Esters of acyl carnitines with long-chain aliphatic alcohols and pharmaceutical compositions containing same having antimycotic activity” (Sigma-Tau Industrie Farmaceutiche Riunite S.p.A., priority 1992, dated 1996)
